Consider 27 compounds from patent publication US20220380338A1, “CYCLOALKYL 3-OXOPIPERAZINE CARBOXAMIDES AND CYCLOHETEROALKYL 3-OXOPIPERAZINE CARBOXAMIDES AS NAV1.8 INHIBITORS” (Merck Sharp & Dohme LLC, priority 2021, published 2022).

T1 sequence (Q9Y5Y9 whole entry): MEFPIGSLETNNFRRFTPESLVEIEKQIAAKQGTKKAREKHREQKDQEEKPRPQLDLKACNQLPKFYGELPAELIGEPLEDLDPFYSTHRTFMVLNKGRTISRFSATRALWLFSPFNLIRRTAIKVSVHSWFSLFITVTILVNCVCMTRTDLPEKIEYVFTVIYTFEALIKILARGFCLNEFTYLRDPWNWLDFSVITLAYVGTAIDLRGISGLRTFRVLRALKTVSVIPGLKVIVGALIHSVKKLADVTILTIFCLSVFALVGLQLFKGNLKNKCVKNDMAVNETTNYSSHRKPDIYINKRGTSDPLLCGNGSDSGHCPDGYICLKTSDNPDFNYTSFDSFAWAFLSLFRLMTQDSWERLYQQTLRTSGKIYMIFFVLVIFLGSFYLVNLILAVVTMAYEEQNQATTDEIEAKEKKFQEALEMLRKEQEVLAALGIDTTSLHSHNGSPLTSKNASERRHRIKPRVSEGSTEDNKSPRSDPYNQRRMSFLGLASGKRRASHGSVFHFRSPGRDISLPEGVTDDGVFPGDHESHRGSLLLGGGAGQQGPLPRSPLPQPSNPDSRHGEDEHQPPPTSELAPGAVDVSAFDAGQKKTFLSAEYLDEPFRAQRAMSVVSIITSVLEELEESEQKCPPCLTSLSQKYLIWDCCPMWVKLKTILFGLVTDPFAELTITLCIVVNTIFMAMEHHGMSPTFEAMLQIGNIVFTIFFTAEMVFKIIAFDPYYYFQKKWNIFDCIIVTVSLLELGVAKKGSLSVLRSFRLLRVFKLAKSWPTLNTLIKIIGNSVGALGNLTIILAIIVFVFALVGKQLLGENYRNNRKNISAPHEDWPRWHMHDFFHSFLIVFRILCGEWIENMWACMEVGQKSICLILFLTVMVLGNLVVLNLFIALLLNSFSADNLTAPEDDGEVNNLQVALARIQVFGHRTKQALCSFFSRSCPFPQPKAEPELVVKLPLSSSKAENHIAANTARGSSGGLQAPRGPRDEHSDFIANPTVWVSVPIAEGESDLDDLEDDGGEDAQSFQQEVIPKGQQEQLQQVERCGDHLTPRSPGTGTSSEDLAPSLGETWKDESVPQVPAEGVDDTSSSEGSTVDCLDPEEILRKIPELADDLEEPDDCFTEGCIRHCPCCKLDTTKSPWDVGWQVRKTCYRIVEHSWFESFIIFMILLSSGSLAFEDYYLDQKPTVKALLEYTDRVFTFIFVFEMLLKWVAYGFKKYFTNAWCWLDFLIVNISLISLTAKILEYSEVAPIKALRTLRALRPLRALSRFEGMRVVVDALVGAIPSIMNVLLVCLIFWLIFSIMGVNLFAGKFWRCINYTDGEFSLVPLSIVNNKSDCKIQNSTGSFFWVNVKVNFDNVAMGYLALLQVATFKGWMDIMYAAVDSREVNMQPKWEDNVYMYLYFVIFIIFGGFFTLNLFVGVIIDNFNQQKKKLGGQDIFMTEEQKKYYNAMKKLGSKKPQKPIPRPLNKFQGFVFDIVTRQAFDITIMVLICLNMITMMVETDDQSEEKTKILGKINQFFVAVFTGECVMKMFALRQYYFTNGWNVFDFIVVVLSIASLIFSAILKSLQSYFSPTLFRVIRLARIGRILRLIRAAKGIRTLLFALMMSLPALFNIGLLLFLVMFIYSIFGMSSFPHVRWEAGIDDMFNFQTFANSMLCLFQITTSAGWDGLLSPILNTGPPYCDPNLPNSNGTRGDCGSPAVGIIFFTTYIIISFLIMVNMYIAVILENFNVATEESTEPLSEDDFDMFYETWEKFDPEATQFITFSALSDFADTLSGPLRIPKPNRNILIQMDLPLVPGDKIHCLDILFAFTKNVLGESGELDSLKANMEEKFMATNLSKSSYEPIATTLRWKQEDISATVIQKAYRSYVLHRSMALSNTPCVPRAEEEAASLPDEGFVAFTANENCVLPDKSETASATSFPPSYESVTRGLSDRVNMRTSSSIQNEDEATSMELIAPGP

This assay concerns the target T1, human NaV1.8 (Homo sapiens, UniProt Q9Y5Y9).
T1 construct: expressed in transfected cells
Description: Nav1.8 Qube® Assay (automated 384-well patch-clamp, inhibition of sodium current). It counts as cell-based. The conditions noted are these: human NaV1.8 channels stably expressed in HEK 293 cells, room temperature. A digest of the protocol:
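Whole-cell voltage clamp at room temperature in HEK293 cells stably expressing NaV1.8; from −90 mV hold, 10 s 1 Hz train of 20 ms pulses to 10 mV with 980 ms repolarization to −67 mV. Peak currents of 1st and 10th pulses give resting and inactivated-state IC50s, Hill fit.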
Turning to `C[C@@H]1C(=O)NCCN1C(=O)NC(c1ccc(F)c(Cl)c1F)C1CCC(F)(F)C1` (single isomer, unassigned) [Example 42D, (2R)-N-((S or R)-(3-chloro-2,4-difluoro-phenyl)((S or R)-3,3-difluorocyclopentyl)-methyl)-2-methyl-3-oxopiperazine-1-carboxamide], the IC50 was 20.1 nM.
`C[C@@H]1C(=O)NCCN1C(=O)NC(c1ccc(F)c(Cl)c1)C1CCC2(CC1)CC2(F)F` (single isomer, unassigned) [Example 19C] returned an IC50 of 15.7 nM.
As for `O=C1NCCN(C(=O)N[C@H](c2ccc(F)c(Cl)c2F)[C@H]2C[C@H](C(F)(F)F)C2)C1C(F)(F)F` (single isomer, unassigned) [Example 63A, (R or S)—N—((S)-(3-chloro-2,4-difluorophenyl)((trans)-3-(trifluoromethyl)cyclobutyl)methyl)-3-oxo-2-(trifluoromethyl)piperazine-1-carboxamide], the IC50 came to 1.8 nM.
In the case of `C[C@@H]1C(=O)NCCN1C(=O)NC(C)(c1ccc(F)c(Cl)c1)C1CC(C(F)(F)F)C1` (single isomer, unassigned) [Example 48C, (2R)—N—((S or R)-1-(3-chloro-4-fluorophenyl)-1-(cis-3-(trifluoromethyl)cyclobutyl)ethyl)-2-methyl-3-oxopiperazine-1-carboxamide], the half-maximal inhibitory concentration (IC50) stood at 312 nM.
Turning to `C[C@@H]1C(=O)NCCN1C(=O)NC(c1ccc(F)c(Cl)c1F)C1CC2(C1)CC2(F)F` (single isomer, unassigned) [Example 22C, (2R)-N-((S or R)-(3-chloro-2,4-difluoro-phenyl)(trans or cis-1,1-difluoro-spiro[2.3]-hexan-5-yl)methyl)-2-methyl-3-oxopiperazine-1-carboxamide], the IC50 was 84.5 nM.
The same measure for `C[C@@H]1C(=O)NCCN1C(=O)NC(c1ccc(OC(F)(F)F)cc1F)[C@H]1C[C@H](C(F)(F)F)C1` (single isomer, unassigned) [Example 50B, (2R)-N-((S or R)-(2-fluoro-4-(trifluoro-methoxy)phenyl)(trans-3-(trifluoro-methyl)-cyclobutyl)-methyl)-2-methyl-3-oxopiperazine-1-carboxamide]: 9.01 nM; for `O=C1CN(C(=O)NC(c2ccc(F)c(Cl)c2F)[C@H]2CC[C@H](C(F)(F)F)CC2)CCN1` (single isomer, unassigned) [Example 10B, N-((S or R)-(3-chloro-2,4-di-fluorophenyl)(trans-4-(trifluoromethyl)-cyclohexyl)methyl)-3-oxopiperazine-1-carboxamide]: 3.87 nM.
`C[C@@H]1C(=O)NCCN1C(=O)NC(c1ccc(Cl)c(C(F)F)c1)C1CCC(C(F)(F)F)CC1` (single isomer, unassigned) [Example 37A, (2R)-N-((R or S)-(4-chloro-3-(difluoro-methyl)phenyl)(cis-4-(trifluoromethyl)cyclohexyl)methyl)-2-methyl-3-oxopiperazine-1-carboxamide]: the 50% inhibitory concentration (IC50) turned out to be 108 nM.
The same measure for `O=C1CN(C(=O)N[C@H](c2ccc(F)c(Cl)c2)C2CCC(C(F)(F)F)CC2)CCN1` (single isomer, unassigned) [Example 1B]: 183 nM; for `C[C@@H]1C(=O)NCCN1C(=O)NC(c1ccc(F)c(Cl)c1F)C1CCC(F)(F)C1` (single isomer, unassigned) [Example 42B, (2R)-N-((R or S)-(3-chloro-2,4-difluoro-phenyl)((S or R)-3,3-difluorocyclopentyl)-methyl)-2-methyl-3-oxopiperazine-1-carboxamide]: 2830 nM.
With `C[C@@H]1C(=O)NCCN1C(=O)NC(c1ccc(F)c(Cl)c1F)C1CCC(F)(F)CC1` (single isomer, unassigned) [Example 13B, (2R)-N-((S or R)-(3-chloro-2,4-difluoro-phenyl)(4,4-difluoro-cyclohexyl)methyl)-2-methyl-3-oxo-piperazine-1-carboxamide], the IC50 came out at 726 nM.
`CC(N1CCC(C(NC(=O)N2CCNC(=O)[C@H]2C)c2ccc(F)c(Cl)c2)CC1)C(F)(F)F` (single isomer, unassigned) [Example 18B]: half-maximal inhibition (IC50) was put at 6.87 nM.
The same measure for `C[C@@H]1C(=O)NCCN1C(=O)NC(c1ccc(F)c(Cl)c1F)C1CC(F)(F)C1` (single isomer, unassigned) [Example 24B, (2R)-N-((S or R)-(3-chloro-2,4-difluoro-phenyl)(3,3-difluoro-cyclobutyl)methyl)-2-methyl-3-oxopiperazine-1-carboxamide]: 29.1 nM.
The same measure for `C[C@@H]1C(=O)NCCN1C(=O)NC(c1ccc(F)c(Cl)c1)C1CC(C(F)(F)F)C1` (single isomer, unassigned) [Example 43D, (2R)-N-((S or R)-(3-chloro-4-fluorophenyl)-(cis-3-(trifluoromethyl)-cyclobutyl)methyl)-2-methyl-3-oxopiperazine-1-carboxamide]: 21.9 nM; for `C[C@@H]1C(=O)NCCN1C(=O)NC(c1ccc(F)c(Cl)c1F)[C@H]1CC[C@H](C(F)(F)F)CC1` (single isomer, unassigned) [Example 9A, (2R)-N-((R or S)-(3-chloro-2,4-difluoro-phenyl)(trans-4-(trifluoromethyl)cyclo-hexyl)methyl)-2-methyl-3-oxo-piperazine-1-carboxamide]: 46.8 nM.
The same measure for `C[C@@H]1C(=O)NCCN1C(=O)NC(C)(c1ccc(F)c(Cl)c1)C1CC(C(F)(F)F)C1` (single isomer, unassigned) [Example 48B, (2R)—N—((R or S)-1-(3-chloro-4-fluorophenyl)-1-(trans-3-(trifluoromethyl)cyclobutyl)ethyl)-2-methyl-3-oxopiperazine-1-carboxamide]: 904 nM; for `C[C@@H]1C(=O)NCCN1C(=O)N[C@@H](c1ccc(F)c(Cl)c1F)[C@H]1C[C@H](C(F)(F)F)C1` [Example 20B, (R)—N—((R)-(3-chloro-2,4-difluorophenyl)(trans-3-(trifluoromethyl)cyclobutyl)methyl)-2-methyl-3-oxopiperazine-1-carboxamide]: 191 nM; for `C[C@@H]1C(=O)NCCN1C(=O)NC(c1ccc(F)c(Cl)c1F)C1CC(OC(F)F)C1` (single isomer, unassigned) [Example 39B, (2R)-N-((R or S)-(3-chloro-2,4-difluoro-phenyl)(cis-3-(difluoro-methoxy)cyclobutyl)-methyl)-2-methyl-3-oxopiperazine-1-carboxamide]: 916 nM.
`C[C@@H]1C(=O)NCCN1C(=O)NC(c1ccc(F)c(Cl)c1)C1CC(OCC(F)(F)F)C1` (single isomer, unassigned) [Example 44D, (2R)—N—((S or R)-(3-chloro-4-fluorophenyl)(trans-3-(2,2,2-trifluoroethoxy)cyclobutyl)methyl)-2-methyl-3-oxopiperazine-1-carboxamide] showed an IC50 of 22.7 nM.
As for `O=C1NCCN(C(=O)N[C@H](c2ccc(F)c(Cl)c2F)[C@H]2C[C@H](C(F)(F)F)C2)C1C(F)(F)F` (single isomer, unassigned) [Example 63B, (S or R)—N—((S)-(3-chloro-2,4-difluorophenyl)((trans)-3-(trifluoromethyl)cyclobutyl)methyl)-3-oxo-2-(trifluoromethyl)piperazine-1-carboxamide], the IC50 was 9.1 nM.
`O=C1CN(C(=O)NC(c2ccc(F)c(Cl)c2)C2CCN(CC(F)(F)F)CC2)CCN1` (single isomer, unassigned) [Example 17A, N-((R or S)-(3-chloro-4-flurophenyl)(1-(2,2,2-trifluoroethyl)piperidin-4-yl)methyl)-3-oxopiperazine-1-carboxamide]: the half-maximal inhibitory concentration (IC50) came to 1630 nM.
The same measure for `C[C@@H]1C(=O)NCCN1C(=O)NC(c1ccc(F)c(C(F)(F)F)c1)[C@H]1C[C@H](C(F)(F)F)C1` (single isomer, unassigned) [Example 51B, (2R)-N-((S or R)-(4-fluoro-3-(trifluoro-methyl)phenyl)(trans-3-(trifluoro-methyl)-cyclobutyl)methyl)-2-methyl-3-oxopiperazine-1-carboxamide]: 3.03 nM; for `C[C@@H]1C(=O)NCCN1C(=O)NC(c1ccc(F)c(Cl)c1F)[C@@H]1C[C@@H]2[C@H](C1)C2(F)F` (single isomer, unassigned) [Example 11B, (R)-N-((S or R)-(3-chloro-2,4-difluoro-phenyl)((1R,3s,5S)-6,6-difluoro-bicyclo[3.1.0]hexan-3-yl)methyl)-2-methyl-3-oxo-piperazine-1-carboxamide]: 4.14 nM.
The same measure for `C[C@@H]1C(=O)NCCN1C(=O)NC(c1ccc(F)c(Cl)c1)C1CC(OC(F)F)C1` (single isomer, unassigned) [Example 38C, (2R)-N-((S or R)-(3-chloro-4-fluorophenyl) (cis-3-(difluoromethoxy)cyclobutyl)methyl)-2-methyl-3-oxopiperazine-1-carboxamide]: 87.1 nM; for `C[C@@H]1C(=O)NCCN1C(=O)NC(c1ccc(Cl)c(C(F)(F)F)n1)C1CCC(F)(F)CC1` (single isomer, unassigned) [Example 46B, (2R)-N-((S or R)-(5-chloro-6-(trifluoro-methyl)pyridin-2-yl)(4,4-difluoro-cyclohexyl)methyl)-2-methyl-3-oxo-piperazine-1-carboxamide]: 23.7 nM.
The same measure for `C[C@@H]1C(=O)NCCN1C(=O)NC(c1ccc(F)c(Cl)c1)C1CC(C(F)(F)F)C1` (single isomer, unassigned) [Example 43A, (2R)-N-((R or S)-(3-chloro-4-fluorophenyl)-(trans-3-(trifluoro-methyl)-cyclobutyl)-methyl)-2-methyl-3-oxopiperazine-1-carboxamide]: 39.6 nM; for `C[C@@H]1C(=O)NCCN1C(=O)N[C@H](c1ccc(F)c(Cl)c1)C1CCC(C(F)(F)F)CC1` (single isomer, unassigned) [Example 5A, (2R)-N-((R or S)-(3-chloro-4-fluoro-phenyl)(trans-4-(trifluoromethyl)cyclo-hexyl)methyl)-2-methyl-3-oxo-piperazine-1-carboxamide]: 40.9 nM.
